Results from ChEMBL document CHEMBL1132913, “Conformationally-restricted ligands for the histamine H1 receptor” (Bioorg Med Chem Lett, 2000).
Active and inactive are the calls of the source. No cut-off for these calls is given here.

What was measured:
[1] = species: Mus musculus; experiment: Effective dose of compound in the […] challenge in mice.; assay type: functional
[2] = biological target: T1, Histamine H1 receptor (Cavia porcellus, UniProt P31389); experiment: In vitro antagonistic activity at the Histamine H1 receptor in guinea pig ileum; assay type: functional, tissue-based
T1 sequence (P31389 whole entry): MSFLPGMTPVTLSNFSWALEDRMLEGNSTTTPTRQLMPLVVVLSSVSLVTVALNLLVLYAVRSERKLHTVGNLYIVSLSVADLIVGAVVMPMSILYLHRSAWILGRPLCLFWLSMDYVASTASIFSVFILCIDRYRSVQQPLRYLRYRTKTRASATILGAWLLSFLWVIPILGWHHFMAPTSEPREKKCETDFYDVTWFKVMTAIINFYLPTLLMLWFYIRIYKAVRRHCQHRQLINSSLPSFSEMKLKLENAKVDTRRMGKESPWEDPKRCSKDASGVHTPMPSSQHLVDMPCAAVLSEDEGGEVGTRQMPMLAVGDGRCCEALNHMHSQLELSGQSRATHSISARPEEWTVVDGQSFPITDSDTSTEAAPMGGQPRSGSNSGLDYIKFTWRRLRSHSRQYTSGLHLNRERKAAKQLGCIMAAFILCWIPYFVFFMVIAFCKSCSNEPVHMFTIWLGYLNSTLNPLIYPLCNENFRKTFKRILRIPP

[3] = species: Mus musculus; experiment: Ability of compound to protect mice against a lethal dose of 48/80; No activity; assay type: functional, organism-based
[4] = species: Mus musculus; experiment: Effect of compound in the […] challenge in mice; No activity; assay type: functional, organism-based
[5] = species: Mus musculus; experiment: Compound was tested for protection against 48/80 challenge in mice; No activity with both mice dying at 36 min; assay type: functional, organism-based
[6] = Partition coefficient (logP); assay type: physicochemical; conditions: octanol/water
[7] = test system: Mus musculus; experiment: Effective dose (in vivo) by administering the compound in mice was determined; assay type: functional
[8] = test system: Mus musculus; experiment: In vivo activity of compound at 40 mg/kg in 48/80 challenge expressed as number of mice surviving for more than 240 min; 0/2; assay type: functional; conditions: 4 h
[9] = test system: Mus musculus; experiment: In vivo activity of compound at 40 mg/kg in 48/80 challenge expressed as number of mice surviving for more than 240 min; 1/2; assay type: functional; conditions: 4 h
[10] = test system: Mus musculus; experiment: In vivo activity of compound at 10 mg/kg in 48/80 challenge expressed as number of mice surviving for more than 240 min; 0/2; assay type: functional; conditions: 4 h
[11] = test system: Mus musculus; experiment: In vivo activity of compound at 10 mg/kg in 48/80 challenge expressed as number of mice surviving for more than 240 min; 1/2; assay type: functional; conditions: 4 h
[12] = test system: Mus musculus; experiment: In vivo activity of compound at 40 mg/kg in 48/80 challenge expressed as number of mice surviving for more than 240 min; 2/2; assay type: functional; conditions: 4 h
[13] = biological target: T1, Histamine H1 receptor; experiment: In vitro antagonistic activity at the Histamine H1 receptor in guinea pig ileum; No inhibition; assay type: functional, tissue-based

CN1CC[C@H]2c3ccccc3C(c3ccccc3)[C@H]2C1 (single isomer, unassigned)
ED50 [1]: 40 mg/kg

CN1CC[C@@](O)(c2ccccc2)[C@H](C(=O)c2ccccc2)C1
IC50 [2]: 26 nM | Activity [3]: inactive

CCc1ccc([C@@H]2c3cc(CC)ccc3[C@@H]3CCN(C)C[C@H]23)cc1
ED50 [4]: inactive

CCN1CC[C@@](O)(c2ccccc2)[C@H](C(=O)c2ccccc2)C1
IC50 [2]: 23 nM | Activity [3]: inactive

CN1CC[C@H]2c3ccccc3[C@@H](c3ccccc3)[C@H]2C1
Activity [5]: inactive

C1=C2C(=C(c3ccccc3)c3ccccc32)CNC1
logP ([6]; read-out: logP): 4.41 | IC50 [2]: 53 nM | ED50 [7]: 40 mg/kg | survival at 40 mg/kg [8]: 50% | survival at 40 mg/kg [9]: 50%

c1ccc(CCN2CCC3=C(C2)C(c2ccccc2)c2ccccc23)cc1 (centres undefined)
logP ([6]; read-out: logP): 6.59 | survival at 10 mg/kg [10]: 0% | survival at 40 mg/kg [8]: 0%

CN1CCC2C(=C(c3ccccc3)c3ccccc32)C1 (centres undefined)
logP ([6]; read-out: logP): 5.23 | IC50 [2]: 28 nM | survival at 10 mg/kg [11]: 50% | survival at 40 mg/kg [12]: 100%

CCN1CC=C2C(=C(c3ccccc3)c3ccccc32)C1
IC50 [13]: Not Active

c1ccc(CN2CCC3C(=C(c4ccccc4)c4ccccc43)C2)cc1 (centres undefined)
logP [6]: 7.03 | IC50 [2]: 10.8 nM | survival at 10 mg/kg [10]: 0% | survival at 40 mg/kg [8]: 0%

CCN1CCC2C(=C(c3ccccc3)c3ccccc32)C1 (centres undefined)
logP ([6]; read-out: logP): 5.76 | survival at 40 mg/kg [12]: 100%

CCN1CCC2=C(C1)C(c1ccccc1)c1ccccc12 (centres undefined)
logP ([6]; read-out: logP): 4.92 | IC50 [2]: 17 nM | survival at 10 mg/kg [10]: 0% | survival at 40 mg/kg [9]: 50%

CN1CCC2=C(C1)C(c1ccccc1)c1ccccc12 (centres undefined) [PHENINDAMINE]
IC50 [2]: 36 nM

c1ccc(CCN2CCC3C(=C(c4ccccc4)c4ccccc43)C2)cc1 (centres undefined)
logP ([6]; read-out: logP): 7.43 | survival at 10 mg/kg [10]: 0% | survival at 40 mg/kg [9]: 50%

CCc1ccc(C2C3=C(CCN(C)C3)c3ccc(CC)cc32)cc1 (centres undefined)
survival at 10 mg/kg [10]: 0% | survival at 40 mg/kg [8]: 0%

c1ccc(CN2CCC3=C(C2)C(c2ccccc2)c2ccccc23)cc1 (centres undefined)
logP ([6]; read-out: logP): 6.02 | IC50 [2]: 470 nM | survival at 10 mg/kg [10]: 0% | survival at 40 mg/kg [8]: 0%

CN1CC=C2C(=C(c3ccccc3)c3ccccc32)C1
logP ([6]; read-out: logP): 4.94 | IC50 [2]: 220 nM | survival at 10 mg/kg [10]: 0% | survival at 40 mg/kg [8]: 0%
